From patent publication US8557811B2, “Dual-color imaging method of sodium/calcium activities using two-photon fluorescent probes and preparation method of two-photon fluorescent probes” (Ajou University Industry—Academic Cooperation Foundation, priority 2010, dated 2013)
Values joined by “and” are separate entries in the source; they are usually repeats but may differ in a detail not shown here. Equal entries are not always repeated.

Experiments:
[1] = Water solubility from fluorescence intensity versus dye concentration; type: physicochemical; conditions: H2O with DMSO at 0.20; highest concentration in the linear region; excitation 360 nm
Description: A stock solution (1.0×10^−2M) was prepared by dissolving the dye (BCa1) in DMSO. The solution was diluted (to 6.0×10^−3 to 6.0×10^−5 M) and transferred to a cuvette holding H2O (3.0 mL) using a microsyringe. In all cases, the concentration of DMSO in H2O was maintained at 0.20. […] The highest concentration in the linear region was determined as the solubility of BCa1, which was about 5.0 μM in water, being sufficient to stain cells.
One-photon fluorescence spectra of BCa1 are shown in FIG. 1 (a), and the fluorescence intensity of BCa1 in H2O depending on concentrations is shown in FIG. 1 (b). Excitation wavelength was 360 nm.

[2] = Spectroscopic measurements (absorption, emission, fluorescence quantum yield); type: physicochemical; conditions: for Φ fluorescence photon efficiency: error range ±10%
Description: Absorption spectra were measured using a Hewlett-Packard 8453 diode array spectrophotometer, and fluorescence spectra were measured using an Amico-Bowman series 2 emission spectrometer having 1 cm standard quartz cell. Fluorescence quantum yield was determined using coumarin 307 (Φ=0.95 in MeOH) according to a previously known method.
Normalized absorption spectra of BCa1 in 1,4-dioxane, EtOH, DMF and H2O are shown in FIG. 2 (a), and normalized emission spectra of BCa1 in 1,4-dioxane, EtOH, DMF and H2O are shown in FIG. 2 (b).

[3] = Fluorescence titration with free Ca2+ in MOPS buffer (one-photon and two-photon); type: binding
Description: This is caused by the blocking of photo-induced electron transfer (PET) resulting from complexation with the metal ions.
One-photon absorption curves of 1 μM BCa1 (30 mM MOPS, 100 mM KCl, pH 7.2) complex in the presence of free Ca^2+ are shown in FIG. 5 (a), one-photon and two-photon fluorescence titration curves are shown in FIG. 5 (b), and one-photon and two-photon Hill curves are shown in FIG. 5 (c).
The dissociation constants of BCa1 for the one-photon and two-photon processes (K^OPd and K^TPd) were calculated from the fluorescence titration curves of FIG. 5 (b).

[4] = Two-photon measurement in BCa1-labeled HeLa cells; type: cell-based
Description: HeLa cells were cultured in Dulbecco's modified Eagle's medium (DMEM; Gibco) supplemented with heat-inactivated 10% (v/v) fetal bovine serum (FBS; Gibco), 100 units/mL penicillin and 100 μg/mL streptomycin. The cells were grown under a humidified environment at 37° C. with air/CO2=95:5. Four days before imaging, the cells were harvested with a trypsin-EDTA solution and were transferred to a glass-bottomed dish (MatTek) with […]. The cells were treated at 37° C. for 20 minutes with 2 μM ANa1, and then loaded with 0.5 μM BCa1 at room temperature. 10 minutes later, the cells were imaged after washing 2 times with a reduced calcium-balanced salt solution (RCBSS; 127 mM NaCl, 3.8 mM KCl, 1.2 mM KH2PO4, 0.8 mM MgCl2, 5 mM glucose and 10 mM HEPES buffer).
Two-photon fluorescence microscopic images of the probe-labeled HeLa cells and tissues were obtained using spectral confocal and multiphoton microscopes (Leica TCS SP2).

[5] = One-photon fluorescence of BCa1 with free Ca2+ in LUVs; type: binding; conditions: LUVs of DOPC/sphingomyelin/CHL (1:1:1, raft mixture), free Ca2+ 2.5 mM, 25±0.5° C.
Description: LUVs for the measurement of one-photon and two-photon spectra were prepared from a hydrated suspension of multilamellar vesicles by means of extrusion. Lipids were dissolved in CHCl3/MeOH (95/5 vol %) and then dried under N2 flow in vacuum. The resulting film was hydrated in MOPS buffer (30 mM MOPS, 100 mM KCl, pH 7.2) by shaking at 60° C. until the suspension became homogeneous. The mixture was subjected to 3 freeze-thaw cycles, and LUVs were extruded therefrom by passing through a membrane having 100 nm pores (Avanti Polar Lipids). To stain the vesicles, BCa1 dissolved in DMSO was added and then 30 minutes was allowed to pass. The proportion of the vesicles to the probe was 300:1. Temperature was measured using a digital thermometer having a precision of 0.1° C.
One-photon fluorescence spectra of complexes of free Ca^2+ (0 to 2.5 mM) and 1 μM BCa1 for LUVs composed of DOPC/sphingomyelin/cholesterol (1:1:1, raft mixture) are shown in FIG. 8 (a), and Hill curves are shown in FIG. 8 (b).
Normalized emission spectra of BCa1 containing free Ca^2+ (2.5 mM) in LUVs composed of DPPC/CHL (black curve), DOPC/sphingomyelin/CHL (1:1:1, raft mixture, blue curve) and DOPC (pink curve) at 25±0.5° C. are shown in FIG. 9 (a), and normalized emission spectra of BCa1 in HeLa cells are shown in FIG. 9 (b). […]

[6] = Relative fluorescence intensity for various cations; conditions: 1 μM BCa1
Description: (§1) Relative fluorescence intensity of 1 μM BCa1 for various cations are shown in FIG. 6 (a), and the effect of pH on one-photon fluorescence intensity of BCa1 is shown in FIG. 6 (b). […] Thus, the probe allows selective detection of Ca^2+ without minimized interference from other biologically relevant cations.

[7] = Effect of pH on one-photon fluorescence intensity; type: physicochemical
Description: as §1

[8] = Two-photon absorption cross section by femtosecond fluorescence spectroscopy; type: physicochemical; conditions: for λ^(2)max two-photon excitation wavelength: with cation (BCa1 + Ca2+, ANa1 + Na+); for δΦ two-photon operational cross section: with cation (BCa1: MOPS buffer with excess Ca2+; ANa1 + Na+), error range ±15%
Description: Two-photon operational emission δΦ of BCa1 in the MOPS buffer containing excess Ca^2+ was 150 GM at 780 nm, 3- to 5-fold improved over Calcium-Green-Ca^2+ or Fura-2-Ca^2+ (see FIG. 7). Thus, it can be seen that staining of cells with BCa1 can provide brighter TPM images as compared to other commercially available probes.
TPA cross section (6) was measured by femtosecond (fs) fluorescence spectroscopy. BCa1 was dissolved in 30 mM MOPS buffer (2.5 mM CaCl2, 100 mM KCl, pH 7.2) to a concentration of 5.0×10^−6 M, and two-photon excited fluorescence (TPEF) was measured at 740 to 940 nm using fluorescein (8.0×10^−6M, pH=11). TPEF intensity of reference and sample was determined at the same excitation wavelength. TPA cross section was calculated by Equation 1. δ=δr(Ssφrfrcr)/(Srφsfscs) [Equation 1]
In Equation 1, s and r respectively stand for sample and reference molecules, S represents the intensity of a signal collected by the CCD detector, Φ represents the fluorescence quantum yield, f represents the overall fluorescence collection efficiency of the experimental apparatus, c represents molecular density in the solution, and δr represents the TPA cross section of reference molecules.

[9] = Fluorescence response of ANa1 to Na+ in buffer; type: binding
[10] = in MeOH; cited from earlier work
[11] = with cation (BCa1 + Ca2+, ANa1 + Na+)
[12] = two-photon process (value in parentheses)

Row | SMILES | solubility of BCa1 in water [1] | λ^(1)max one-photon absorption wavelength ([2]; probe without added cation) | λ^flmax one-photon emission wavelength ([2]; probe without added cation) | Φ fluorescence photon efficiency ([2]; probe without added cation) | λ^(1)max one-photon absorption wavelength [2, 11] | λ^flmax one-photon emission wavelength [2, 11] | Φ fluorescence photon efficiency [2, 11] | FEF fluorescence enhancement factor (F − Fmin)/Fmin ([3]; one-photon process) | FEF fluorescence enhancement factor (F − Fmin)/Fmin [3, 12] | maximum emissions of the two Gaussian curves fitted to the emission spectrum [4] | maximum emissions of the two Gaussian curves fitted to the emission spectrum [5] | fluorescence response to Fe^2+, Cu^2+ and Co^2+ [6] | fluorescence response to Mg^2+, Zn^2+ and Mn^2+ [6] | effect of pH on one-photon fluorescence intensity [7] | λ^(2)max two-photon excitation wavelength [8] | δΦ two-photon operational cross section [8] | FEF fluorescence enhancement factor (F − Fmin)/Fmin ([9]; one-photon process) | FEF fluorescence enhancement factor (F − Fmin)/Fmin [9, 12] | Φ fluorescence quantum yield of the reference [10]
1 | CN(CC(=O)Nc1ccc(N(CC(=O)O)CC(=O)O)c(OCC(=O)N2CCOCC2)c1)c1ccc2cc(-c3nc4ccccc4o3)ccc2c1 [BCa1] | about 5.0 μM | 360 nm | 470 nm | 0.07 | 360 nm | 470 nm | 0.98 | 13 | 14 | 430 nm and 460 nm | 436 nm and 467 nm | no response at all | weak responses | not affected by pH | 780 nm | 150 GM |  |  | 
2 | COc1ccccc1N1CCOCCOCCN(c2ccc(NC(=O)CN(C)c3ccc4cc(C(C)=O)ccc4c3)cc2OC)CCOCC1 [ANa1, reference compound] |  | 367 nm | 500 nm | 0.08 | 367 nm | 500 nm | 0.65 |  |  |  |  |  |  |  | 780 nm | 95 GM | 8(8) | 8(8) | 
3 | CCNc1cc2oc(=O)cc(C(F)(F)F)c2cc1C [coumarin 307] |  |  |  |  |  |  |  |  |  |  |  |  |  |  |  |  |  |  | 0.95
